Source: patent US20250325571A1, “TREATMENT OF BINGE EATING DISORDER USING PSYCHEDELICS” (TRYP Therapeutics Inc., priority 2022, published 2025)

Key:
[1] = cited from earlier work
[2] = rats, cited from earlier work
[3] = across species tested; cited from earlier work
[4] = system: 2-deoxy-D-glucose-induced hyperphagia; conditions: rats; cited from earlier work
[5] = system: human subjects with a Binge eating disorder (BED); experiment: Open-label clinical study of oral psilocybin with psychotherapy in BED: eating behavior, body and psychological indicators; format: in vivo; conditions: for BMI / Waist circumference / HADS Anxiety Score / HADS Depression Score / Acceptance and Action Questionnaire (AAQ-II) score / Patient Global Impression (PGI-I) score / Binge Eating Scale (BES) score: one subject; for Patient Global Impression (PGI-I) score: scale 1 (very much improved) to 7, baseline set at 4; for Binge Eating Scale (BES) score: BES ranges from 0 to 46
[6] = system: human subjects with a Binge eating disorder (BED); experiment: Safety evaluation in the clinical study (adverse events, vital signs); format: in vivo
Protocol: Subjects were instructed to consume a low-fat breakfast at least one hour before reporting to the dosing session, where a single 25 mg oral dose of psilocybin was to be administered (Usona Institute). On dosing day, vital signs, for example, heart rate and BP, were assessed prior to administration of psilocybin and at 30, 60, 90, 120, 180, 240, 300, and 360 minutes post-administration. 12-lead ECGs were performed in triplicate pre-dosing and 60, 120, and 360 minutes after capsule administration. C-SSRS responses were reported prior to and following dosing. […] ACT-based clinical formulation continues as the therapist listens to emergent narratives and notes instances of psychological flexibility and inflexibility, especially present moment awareness, avoidance, and values.
Session monitors were trained to provide support to subjects if they experience acute anxiety, agitation, paranoia, or panic. However, in the event of an AE, a physician was consulted. AEs include psychiatric emergency, hypertension, acute chest pain, and headache. An oral benzodiazepine, for example, lorazepam, was available for treatment of panic or anxiety. An oral antipsychotic, for example, risperidone, was available for treatment of psychosis or severe agitation. If a subject experienced hypertension, a BP of >200 mm Hg systolic or >110 mm Hg diastolic for more than 15 minutes from four consecutive readings, the subject was transferred to the emergency room whether or not they were symptomatic. Labetalol or similar drug was available for treatment of hypertension. If a subject developed new-onset chest pain, the subject was evaluated in-person by the study physician to determine whether the pain was cardiovascular or musculoskeletal, or reflects acute panic/anxiety. Vital signs and ECG were monitored and compared to baseline measurements for evidence of acute ischemia. […]
Vital signs, such as BP and heart rate, were recorded at the dosing session, the day following dosing, and at Weeks 6, 10, and 14 (4, 8, and 12 weeks after the dosing session). […]
Adverse events (AEs) were monitored throughout the study. […]

[7] = system: tissue phosphatases; conditions: in vitro studies; cited from earlier work
[8] = doses examined in clinical studies; cited from earlier work
[9] = system: human subjects with a Binge eating disorder (BED); experiment: Psychedelic experience questionnaires (CEQ, MEQ30) one day after dosing; conditions: one subject
[10] = day 0 (day of administration of psilocybin, 25 mg oral)
[11] = day 0, after dosing (25 mg oral)
[12] = day 27 after single 25 mg oral dose with psychotherapy
[13] = day −42 relative to dosing day (baseline, before psilocybin)

For `CN(C)CCc1c[nH]c2cccc(O)c12` [psilocin], the “Time until psilocin is detectable in plasma” value ([1]; after administration of the parent compound (oral psilocybin)) is given as no more than 20 min, the Half-life in blood ([1]; in vivo) is given as 2 to 3 h and the “Time to maximum plasma levels” value ([2]; post-administration of oral psilocybin) is given as “approximately 90 minutes”. For the same compound, the “Fraction of total psilocin absorbed from the digestive tract” value ([2]; psilocybin administered orally) was “approximately 50%” and the “Brain regions with highest levels of psilocin” value [3] was “neocortex, hippocampus, and thalamus”.

For `Clc1cccc(N2CCNCC2)c1` [m-chlorophenylpiperazine], the “Effect on 2-deoxy-D-glucose-induced hyperphagia” value [4] is listed as “inhibited”.

With `CN(C)CCc1c[nH]c2cccc(OP(=O)(O)O)c12` [psilocybin, 3-[2-(dimethylamino)ethyl]-1H-indol-4-yl]dihydrogen phosphate] the “Persistence of decrease in FBE after administration” value ([5]; 3 subjects for whom data was available) was “over 80 days”, the “Reduction of daily instances of feeling lost control over eating, 4 of 5 subjects” value ([5]; 4 of 5 subjects, four-week post-dosing measurement period) was “greater than 70%” and the “Reduction in daily binge eating episodes from baseline, 4 of 5 subjects” value ([5]; 4 of 5 subjects, four-week post-dosing measurement period, FIG. 3A) was no less than 75%. For the same compound, the “Reduction of daily instances of feeling lost control over eating, average (Eating Questionnaire Q2)” value ([5]; 5 subjects, four-week post-dosing measurement period, FIG. 3B) was 81.6%, the “Duration of effects on BED symptom improvement” value ([5]; after administration of a single dose) was no less than 80 days and the “Persistence of decrease in FBE after administration” value ([5]; all 4 subjects for whom data was available) was no less than 50 days. The “Daily reduction in binge eating episodes from baseline, all subjects” value ([5]; all 5 subjects, four-week post-dosing measurement period) was “at least 60%”, the “Reduction of daily binge eating episodes from baseline, average (Eating Questionnaire Q1)” value ([5]; average across 5 subjects, four-week post-dosing measurement period, single 25 mg oral dose) was 80.4% and the BMI [5, 10] was 43.5 kg/m^2. The Waist circumference [5, 10] was 105.9 cm, the “HADS Anxiety Score” value [5, 11] was 6 and the “HADS Depression Score” value [5, 11] was 6. The “HADS Anxiety Score” value ([5]; day 0, before dosing) was 5, the “HADS Depression Score” value ([5]; day 0, before dosing) was 5 and the “Acceptance and Action Questionnaire (AAQ-II) score” value (“Acceptance and Action Questionnaire” for short) ([5]; day 13 after dosing) was 10. For the same compound, the “HADS Anxiety Score” value ([5]; day 13 after dosing) was 4, the “HADS Depression Score” value ([5]; day 13 after dosing) was 0 and the “Patient Global Impression (PGI-I) score” value ([5]; day 13 after dosing) was 1. The “Acceptance and Action Questionnaire” value ([5]; day 27 after dosing) was 10, the “HADS Anxiety Score” value ([5]; day 27 after dosing) was 2 and the “HADS Depression Score” value ([5]; day 27 after dosing) was 1. The “Patient Global Impression (PGI-I) score” value ([5]; day 27 after dosing) was 1, the BMI [5, 12] was 42.5 kg/m^2 and the Waist circumference [5, 12] was 104.4 cm. For the same compound, the “Binge Eating Scale (BES) score” value ([5]; day 27 after single 25 mg oral dose) was 5, the “Acceptance and Action Questionnaire” value ([5]; day −42 (baseline)) was 13 and the “HADS Anxiety Score” value ([5]; day −42 (baseline)) was 5. The “HADS Depression Score” value ([5]; day −42 (baseline)) was 5, the “Binge Eating Scale (BES) score” value ([5]; day −42 (baseline)) was 13 and the BMI [5, 13] was 42.9 kg/m^2. The Waist circumference [5, 13] was 106.6 cm, the Drug-related adverse events ([6]; 5 subjects, four-week period following administration) was “No drug-related adverse events were reported” and the “Changes in heart rate or blood pressure” value ([6]; one subject, 25 mg oral dose) was “No substantial changes were observed”. The Adverse events ([6]; one subject, during the administration or the integration sessions) was “No adverse events were observed”, the Bioavailability ([1]; oral) was roughly 50% and the “Most active metabolic organs for initial psilocybin metabolism” value [7] was “kidneys as being among the most active metabolic organs”. For the same compound, the Tolerability [8] was “well tolerated”, the “Challenging Experience Questionnaire score: Death” value ([9]; CEQ ranges from 0.000 to 1.000) was 0 and the “Challenging Experience Questionnaire score: Fear” value ([9]; CEQ ranges from 0.000 to 1.000) was 0.16. The “Challenging Experience Questionnaire score: Grief” value ([9]; CEQ ranges from 0.000 to 1.000) was 0, the “Challenging Experience Questionnaire score: Insanity” value ([9]; CEQ ranges from 0.000 to 1.000) was 0 and the “Challenging Experience Questionnaire score: Isolation” value ([9]; CEQ ranges from 0.000 to 1.000) was 0. For the same compound, the “Challenging Experience Questionnaire score: Paranoia” value ([9]; CEQ ranges from 0.000 to 1.000) was 0, the “Challenging Experience Questionnaire score: Physical Distress” value ([9]; CEQ ranges from 0.000 to 1.000) was 0.24 and the “Challenging Experience Questionnaire score: Total Score” value ([9]; CEQ ranges from 0.000 to 1.000) was 0.06. For the same compound, the “MEQ30 score: Ineffability” value ([9]; MEQ30 ranges from 0% to 100%) was 80%, the “MEQ30 score: Mystical” value ([9]; MEQ30 ranges from 0% to 100%) was 45.33% and the “MEQ30 score: Positive mood” value ([9]; MEQ30 ranges from 0% to 100%) was 93.33%. The “MEQ30 score: Total Score” value ([9]; MEQ30 ranges from 0% to 100%) was 58.67% and the “MEQ30 score: Transcendence of time and space” value ([9]; MEQ30 ranges from 0% to 100%) was 46.67%.
